Data on 15 compounds can be found in patent US20240245691A1 (Sitryx Therapeutics Limited, priority 2021, published 2024).

For one data set, the system named is IL-1β. Put plainly: THP-1 AlphaLISA IL-1β cytokine assay (differentiated THP-1 cells). In kind it is cell-based. On the procedure:
(§1) Measuring Inhibitory Effects on IL-1V Cytokine and IL-6 Output from THP-1s
(§2) The cytokine inhibition profiles of compounds of formula (I) were determined in a differentiated THP-1 cell assay. All assays were performed in RPMI-1640 growth medium (Gibco), supplemented with 10% fetal bovine serum (FBS; Gibco), 1% penicillin-streptomycin and 1% sodium pyruvate unless specified otherwise. The IL-1β and IL-6 cytokine inhibition assays were run in a background of differentiated THP-1 cells as described below. All reagents described were from Sigma-Aldrich unless specified otherwise. Compounds were prepared as 10 mM DMSO stocks.
(§3) THP-1 cells were expanded as a suspension up to 80% confluence in appropriate growth medium. Cells were harvested, suspended, and treated with an appropriate concentration of phorbol 12-myristate 13-acetate (PMA) over a 72 hr period (37° C./5% CO2).
(§4) Following 72 hrs of THP-1 cell incubation, cellular medium was removed and replaced with fresh growth media containing 1% of FBS. Working concentrations of compounds were prepared separately in 10% FBS treated growth medium and pre-incubated with the cells for 30 minutes (37° C./5% CO2). Following the 30 minute compound pre-incubation, THP-1s were treated with an appropriate concentration of LPS and the THP-1s were subsequently incubated for a 24 hr period (37° C./5% CO2). An appropriate final concentration of Nigericin was then dispensed into the THP-1 plates and incubated for 1 hour (37° C./5% CO2) before THP-1 supernatants were harvested and collected in separate polypropylene 96-well holding plates.
(§5) Reagents from each of the IL-1β and IL-6 commercial kits (Perkin Elmer) were prepared and run according to the manufacturer's instructions. Subsequently, fluorescence signal detection in a microplate reader was measured (EnVision® Multilabel Reader, Perkin Elmer).
(§6) Percentage inhibition was calculated per cytokine by normalising the sample data to the high and low controls used within each plate (+/−LPS respectively).
(§7) Dimethyl itaconate and 4-octyl itaconate were included as comparator compounds.

In another data set the test system is IL-6. In words: THP-1 AlphaLISA IL-6 cytokine assay (differentiated THP-1 cells). In kind it is cell-based. How it is done: as §1, §2, §3, §4, §5, §6, §7
For orientation: Bead proximity is the source of the signal in Alpha formats.

For data set [1], the system named is cryo-preserved hepatocytes. In words: Hepatocyte stability assay, human. Type of data set: in vitro ADME. An excerpt: (§8) Defrosted cryo-preserved hepatocytes (viability>70%) were used to determine the metabolic stability of a compound via calculation of intrinsic clearance (CIint; a measure of the removal of a compound from the liver in the absence of blood flow and cell binding). Clearance data are particularly important for in vitro work as they can be used in combination with in vivo data to predict the half-life and oral bioavailability of a drug.
(§9) The metabolic stability in hepatocytes assay involved a time-dependent reaction using both positive and negative controls. The cells must be pre-incubated at 37° C. then spiked with test compound (and positive control); samples taken at pre-determined time intervals were analysed to monitor the change in concentration of the initial drug compound over 60 minutes. A buffer incubation reaction (with no hepatocytes present) acted as a negative control and two cocktail solutions, containing compounds with known high and low clearance values (verapamil/7-hydroxycoumarin and propranolol/diltiazem), acted as positive controls. • 1. The assay was run with a cell concentration of 0.5×10^6 cells/mL in Leibovitz buffer. • 2. All compounds and controls were run in duplicate. • 3. Compound concentration was 10 μM. • 4. All compounds and controls were incubated with both cells and buffer to show turnover is due to hepatic metabolism. • 5. All wells on the incubation plate had 326.7 μL of either cells or buffer added. • 6. Prior to assay, cell and buffer-only incubation plates were preincubated for 10 mins at 37° C. • 7. The assay was initiated by adding compounds, 3.3 μL of 1 mM in 10% DMSO-90% Buffer; final DMSO concentration is 0.1%. • 8. Samples were taken at regular timepoints (0, 5, 10, 20, 40, 60 min) until 60 mins. • 9. Sample volume was 40 μL and added to 160 μL of crash solvent (acetonitrile with internal standard) and stored on ice. • 10. At the end of the assay, the crash plates were centrifuged at 3500 rpm for 20 mins at 4° C. • 11. 80 μL of clear supernatant was removed and mixed with 80 μL of deionised water before being analysed by LC-MS/MS.
(§10) Raw LC-MS/MS data were exported to, and analysed in, Microsoft Excel for determination of intrinsic clearance. The percentage remaining of a compound was monitored using the peak area of the initial concentration as 100%. Intrinsic clearance and half-life values were calculated using a graph of the natural log of percentage remaining versus the time of reaction in minutes.
(§11) 4-Octyl itaconate was included as a comparator compound.

Data set [2] in a line: Hepatocyte stability assay, human. Type of data set: in vitro ADME. Conditions: human, hepatocytes, T½.
Description: as §8, §9, §10, §11

Data set [3] has as its system cryo-preserved hepatocytes. In words: Hepatocyte stability assay, mouse. Type of data set: in vitro ADME.
Description: as §8, §9, §10, §11

A short description of data set [4]: Hepatocyte stability assay, mouse. The settings on record: mouse, hepatocytes, T½. In kind it is in vitro ADME.
Description: as §8, §9, §10, §11

The subject of data set [5] is NRF2 (nuclear factor erythroid 2-related factor 2). In words: NRF2 +/-GSH activation assay (DiscoverX PathHunter NRF2 translocation kit, U2OS cells). Type of data set: cell-based. The settings on record: for Emax / EC50: Homo sapiens; for Emax: U2OS; for EC50: U2OS PathHunter cells, 6 hours.
The mark [6] stands for this setting: Homo sapiens, THP-1, differentiated THP-1 cells, LPS 24 hr then Nigericin 1 hour, read-out: IL-1β (IC50).
[7] abbreviates: Homo sapiens, THP-1, differentiated THP-1 cells, LPS 24 hr then Nigericin 1 hour, read-out: IL-6 (IC50).
Setting [8] is: Human hepatocytes, 10 μM compound, 60 min.
Setting [9] is: Mouse hepatocytes, 10 μM compound, 60 min.
[10] abbreviates: differentiated THP-1 cells, LPS 24 hr then Nigericin 1 hour, read-out: IL-1β (IC50).
The mark [11] stands for this setting: −GSH, normalised to dimethyl fumarate high control.
The mark [12] stands for this setting: differentiated THP-1 cells, LPS 24 hr then Nigericin 1 hour, read-out: IL-6 (IC50).
[13] abbreviates: −GSH, normalised to dimethyl fumarate high control, read-out: NRF2 activation Emax, −GSH.
Setting [14] is: −GSH, read-out: NRF2 activation EC50, −GSH.
Where [15] appears, read: Homo sapiens, THP-1, differentiated THP-1 cells, footnote a: data from repeated experiments, read-out: IL-1β (IC50), data from repeated experiments.

Like-named read-outs stand apart in the source and are kept apart here.

On to `C=C(CC(=O)N[C@@H](C)c1ccc(C(F)(F)F)cn1)C(=O)OC1CCN(C(C)=O)CC1` [Example 35, 1-acetylpiperidin-4-yl (S)-2-methylene-4-oxo-4-((1-(5-(trifluoromethyl)pyridin-2-yl)ethyl)amino)butanoate], for which the IC50 (as a rule, the concentration that inhibits the measured activity by half) was 42.7 µM in the data set on IL-1β (setting [6]) and 11.9 µM with IL-6 (setting [7]).
With `C[C@H](NC(=O)C/C(=C\CCc1ccccc1)C(=O)O)c1ccc(C(F)(F)F)cc1` [Example 46, (S,E)-2-(2-oxo-2-((1-(4-(trifluoromethyl)phenyl)ethyl)amino)ethyl)-5-phenylpent-2-enoic acid], the Clint is 7 μL min^−1 10^−6 cells in data set [1] (human, hepatocytes) and 37 μL min^−1 10^−6 cells in data set [3] (mouse, hepatocytes). In addition, the half-life (usually the time needed for the level to fall by half in the phase considered) at 10 μM in data set [2] stood at 3.35 h; in data set [4], 0.667 h. For the same compound, the concentration for half-maximal inhibition (IC50) with IL-1β (setting [6]) was determined as 2.5 µM.
With `C=C(CC(=O)OCCCCCCCC)C(=O)O` [4-octyl itaconate, 4-Octyl itaconate, reference compound], the values for the Clint in data set [1] (setting [8]) and in data set [3] (setting [9]) were 401 μL min^−1 10^−6 cells and 351 μL min^−1 10^−6 cells, respectively. Besides, the T½ in data set [1] (setting [8]) and in data set [3] (setting [9]) was 0.067 h throughout. Further, the 50% inhibitory concentration (IC50) worked out at 38.3 µM in the data set with IL-1β (setting [10]) and 20.3 µM in the data set with IL-6 (setting [12]). Also, the “NRF2 activation Emax, +GSH” value in data set [5] (+GSH, normalised to dimethyl fumarate high control) is 148%. Also, the “NRF2 activation Emax, −GSH” value in data set [5] (setting [11]) is 165%.
Regarding `C=C(CC(=O)OC)C(=O)OC` [dimethyl itaconate, Dimethyl itaconate, reference compound], the results for the IC50 with IL-1β (setting [6]) and with IL-6 (setting [7]) were greater than 100 µM and 100 µM, respectively. Moreover, the Emax – broadly, the greatest response seen or fitted, relative to the assay's reference – in data set [5] (setting [13]) stood at 137%. Further, the EC50 (as a rule, the concentration at which the effect is half-maximal) in data set [5] (setting [14]) was found to be 21.4 µM. In addition, the “NRF2 activation Emax, −GSH” value in data set [5] (setting [11]) was determined as 137%.
Turning to `C=C(CC(=O)N[C@@H](C)c1ccc(C(F)F)cc1)C(=O)O` [Example 18, (S)-4-((1-(4-(difluoromethyl)phenyl)ethyl)amino)-2-methylene-4-oxobutanoic acid], the IC50 in the data set on IL-1β (setting [6]) is 56 µM; in the data set on IL-6 (setting [7]), greater than 31.6 µM.
For `C=C(CC(=O)N[C@@H](CO)c1ccc(C(F)(F)F)cc1)C(=O)O` [Example 12, (R)-4-((2-hydroxy-1-(4-(trifluoromethyl)phenyl)ethyl)amino)-2-methylene-4-oxobutanoic acid], the results for the IC50 with IL-1β (setting [6]), in the data set with IL-1β (setting [15]) and in the data set with IL-6 (setting [7]) were 26.6 µM, 35.1 µM and greater than 100 µM, respectively.
Turning to `C=C(C(=O)O)C(C)C(=O)N[C@@H](C)c1ccc(C(F)(F)F)cc1` (single isomer, unassigned; isomer 2) [Example 55], the Clint is less than 3 μL min^−1 10^−6 cells in data set [1] (human, hepatocytes) and 3 μL min^−1 10^−6 cells in data set [3] (mouse, hepatocytes). Also, the T½ in data set [1] (human, hepatocytes, 10 μM) is greater than 7.67 h; in data set [3] (mouse, hepatocytes, 10 μM), 7.62 h. In addition, the IC50 was 18.9 µM in the data set on IL-1β (setting [10]) and greater than 31.6 µM in the data set with IL-6 (setting [12]).
Consider `C=C(C(=O)O)C(C)C(=O)NC(C)(C)c1ccc(C(F)(F)F)cc1` (single isomer, unassigned) [Example 53, 3-methyl-2-methylene-4-oxo-4-((2-(4-(trifluoromethyl)phenyl)propan-2-yl)amino)butanoic acid], for which the Clint is on record as less than 3 μL min^−1 10^−6 cells in data set [1] (human, hepatocytes) and 5 μL min^−1 10^−6 cells in data set [3] (mouse, hepatocytes). The T½ is greater than 7.67 h in data set [1] (human, hepatocytes, 10 μM) and 4.78 h in data set [3] (mouse, hepatocytes, 10 μM). The IC50 in the data set on IL-1β (setting [10]) is 9.3 µM; in the data set on IL-6 (setting [7]), greater than 100 µM.
In the case of `C=C(CC(=O)N[C@@H](C)c1ccc(C(F)(F)F)cn1)C(=O)OC1CN(C(C)=O)C1` [Example 36, 1-acetylazetidin-3-yl (S)-2-methylene-4-oxo-4-((1-(5-(trifluoromethyl)pyridin-2-yl)ethyl)amino)butanoate], the Clint in data set [3] (mouse, hepatocytes) is recorded as 61 μL min^−1 10^−6 cells. The half-life at 10 μM in data set [4] was 0.367 h. The figures for the IC50 in the data set with IL-1β (setting [6]) and in the data set with IL-6 (setting [7]) were 3.9 µM and greater than 100 µM, respectively. Further, the Emax in data set [5] (+GSH, normalised to dimethyl fumarate high control, read-out: NRF2 activation Emax, +GSH) is 25%; in data set [5] (setting [13]) it was 65%. The EC50 in data set [5] (+GSH, read-out: NRF2 activation EC50, +GSH) is greater than 100 µM; in data set [5] (setting [14]) it was 15.9 µM.
On to `C=C(CC(=O)N[C@@H](C)c1ccc(Cl)cc1)C(=O)O` [Example 15, (S)-4-((1-(4-chlorophenyl)ethyl)amino)-2-methylene-4-oxobutanoic acid], for which the IC50 with IL-1β (setting [6]) was 33.7 µM; with IL-1β (setting [15]) it was 32.6 µM; with IL-6 (setting [7]), greater than 61.1 µM.
Turning to `C=C(CC(=O)NC(c1ccc(C(F)(F)F)cc1)C1CC1)C(=O)O` (stereo not shown) [Example 23, 4-((cyclopropyl(4-(trifluoromethyl)phenyl)methyl)amino)-2-methylene-4-oxobutanoic acid], the Clint was less than 3 μL min^−1 10^−6 cells in data set [1] (human, hepatocytes) and 4 μL min^−1 10^−6 cells in data set [3] (mouse, hepatocytes). The T½ in data set [1] (human, hepatocytes, 10 μM) is greater than 7.67 h; in data set [3] (mouse, hepatocytes, 10 μM), 5.92 h. Further, the IC50 is 13.4 µM with IL-1β (setting [10]) and greater than 100 µM in the data set on IL-6 (setting [12]).
As for `C=C(CC(=O)N[C@@H](C)c1ccc(C(F)(F)F)nc1)C(=O)O` [Example 38, (S)-2-methylene-4-oxo-4-((1-(6-(trifluoromethyl)pyridin-3-yl)ethyl)amino) butanoic acid], the results for the IC50 with IL-1β (setting [6]) and with IL-6 (setting [7]) were 29.6 µM and greater than 100 µM, respectively.
For `C=C(CC(=O)N[C@@H](CC)c1ccc(C(F)(F)F)cc1)C(=O)O` [Example 8, (S)-2-methylene-4-oxo-4-((1-(4-(trifluoromethyl)phenyl)propyl)amino)butanoic acid], the IC50 was 43.5 µM in the data set on IL-1β (setting [6]) and greater than 100 µM in the data set with IL-6 (setting [7]).
For `C=C(CC(=O)NCc1ccc(C(F)(F)F)cc1)C(=O)O` [Example 6, 2-methylene-4-oxo-4-((4-(trifluoromethyl)benzyl)amino)butanoic acid], in that order: 25.3 µM and greater than 100 µM.
In the case of `C=C(C(=O)O)C(C)C(=O)NC(C)(C)c1ccc(C(F)(F)F)cc1` (stereo not shown) [Example 51, 3-methyl-2-methylene-4-oxo-4-((2-(4-(trifluoromethyl)phenyl)propan-2-yl)amino)butanoic acid], the Clint in data set [1] (human, hepatocytes) is given as less than 3 μL min^−1 10^−6 cells. In data set [2], the half-life at 10 μM was greater than 7.67 h. The concentration for half-maximal inhibition (IC50) with IL-1β (Homo sapiens, THP-1, read-out: IL-1β (IC50)) is 10.2 µM; in the data set on IL-6 (Homo sapiens, THP-1, read-out: IL-6 (IC50)) it was greater than 100 µM.
